This experiment addresses recombinant human PAI-1 (Homo sapiens, UniProt P05121). Put plainly: biochemical. As to conditions: read-out: Inhibition Rate of PAI-1 Activity (%).
recombinant human PAI-1, sequence (P05121 24-402): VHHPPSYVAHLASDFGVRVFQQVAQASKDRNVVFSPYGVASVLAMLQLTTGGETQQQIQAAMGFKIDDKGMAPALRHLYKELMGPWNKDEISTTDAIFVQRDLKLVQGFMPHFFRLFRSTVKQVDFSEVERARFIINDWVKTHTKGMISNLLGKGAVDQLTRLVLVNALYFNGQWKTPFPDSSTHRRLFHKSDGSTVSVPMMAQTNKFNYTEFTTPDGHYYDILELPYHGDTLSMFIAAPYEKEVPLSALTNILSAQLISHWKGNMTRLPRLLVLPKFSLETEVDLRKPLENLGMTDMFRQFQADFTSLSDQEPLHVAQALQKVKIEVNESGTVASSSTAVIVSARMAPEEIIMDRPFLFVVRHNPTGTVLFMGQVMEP
In the case of `O=C(O)C(=O)N(Cc1ccccc1)c1c(Cl)cc(-c2ccc(OC(F)(F)F)cc2)cc1Cl` [Compound 180], the inhibition at 5 µM came out at 19%, the inhibition at 10 µM was 36% and the inhibition at 25 µM is 71%.

Turning to `O=C(O)C(=O)N(Cc1ccc(O)cc1)c1ccc(-c2ccc(OC(F)(F)F)cc2)cc1` [Compound 181], the inhibition at 5 µM was determined as 10%, the inhibition at 10 µM came to 11% and the inhibition at 25 µM is 31%.

Take `COc1ccc(-c2ccc(OC(F)(F)F)cc2)cc1N(Cc1ccc(C(C)(C)C)cc1)C(=O)C(=O)O` [Compound 182]: the inhibition at 5 µM came out at 56%, the inhibition at 10 µM is 85% and the inhibition at 25 µM came out at 89%.

Consider `O=C(O)C(=O)N(Cc1ccc(OC(F)(F)F)cc1)c1ccc(-c2ccccc2)cc1` [Compound 183], for which the inhibition at 10 µM came out at 11% and the inhibition at 25 µM is 29%.

`Cc1cc(N(Cc2ccc(C(C)(C)C)cc2)C(=O)C(=O)O)ccc1-c1ccc(OC(F)(F)F)cc1` [Compound 184]: the inhibition at 5 µM was determined as 59%, the inhibition at 10 µM amounted to 86% and the inhibition at 25 µM turned out to be 85%.

`Cc1ccc(N(Cc2ccc(C(C)(C)C)cc2)C(=O)C(=O)O)cc1Oc1ccc(OC(F)(F)F)cc1` [Compound 187]: the inhibition at 5 µM turned out to be 75%, the inhibition at 10 µM was found to be 92% and the inhibition at 25 µM worked out at 88%.

For the compound `CC(C)(C)c1ccc(CN(C(=O)C(=O)O)c2ccc(Cl)cc2Oc2ccc(OC(F)(F)F)cc2)cc1` [Compound 191], the inhibition at 5 µM was 74%, the inhibition at 10 µM was 92% and the inhibition at 25 µM worked out at 87%.

In the case of `CCCCCOc1ccc(-c2ccc(OC(F)(F)F)cc2)cc1N(Cc1ccccc1)C(=O)C(=O)O` [Compound 195], the inhibition at 5 µM was found to be 77%, the inhibition at 10 µM was found to be 94% and the inhibition at 25 µM is 93%.

For `CC(C)(C)c1ccc(CN(C(=O)C(=O)O)c2ccc(-c3ccc(OC(F)(F)F)cc3)c(CCC(=O)O)c2)cc1` [Compound 196], the inhibition at 5 µM was determined as 18%, the inhibition at 10 µM turned out to be 35% and the inhibition at 25 µM was determined as 64%.

Regarding `CC(C)(C)c1ccc(CN(C(=O)C(=O)O)c2ccc(-c3cccc(OC(F)(F)F)c3)cc2)cc1` [Compound 200], the inhibition at 5 µM was 64%, the inhibition at 10 µM was 89% and the inhibition at 25 µM was 92%.

In the case of `CC(C)(C)c1ccc(CN(C(=O)C(=O)O)c2ccc(-c3ccccc3OC(F)(F)F)cc2)cc1` [Compound 201], the inhibition at 5 µM is 64%, the inhibition at 10 µM worked out at 89% and the inhibition at 25 µM worked out at 82%.

Regarding `CC(C)(C)c1ccc(-c2ccc(N(Cc3ccccc3OC(F)(F)F)C(=O)C(=O)O)cc2)cc1` [Compound 202], the inhibition at 5 µM turned out to be 70%, the inhibition at 10 µM is 94% and the inhibition at 25 µM is 98%.

`CC(C)(C)c1ccc(-c2ccc(N(Cc3cccc(OC(F)(F)F)c3)C(=O)C(=O)O)cc2)cc1` [Compound 203]: the inhibition at 5 µM came out at 69%, the inhibition at 10 µM amounted to 91% and the inhibition at 25 µM amounted to 97%.

`CC(C)(C)c1ccc(-c2ccc(N(Cc3ccc(Cl)cc3)C(=O)C(=O)O)cc2)cc1` [Compound 204]: the inhibition at 5 µM stood at 58%, the inhibition at 10 µM stood at 85% and the inhibition at 25 µM was greater than 99%.

As for `CC(C)(C)c1ccc(-c2ccc(N(Cc3ccc(C(F)(F)F)cc3)C(=O)C(=O)O)cc2)cc1` [Compound 205], the inhibition at 5 µM was 50%, the inhibition at 10 µM was 80% and the inhibition at 25 µM worked out at 98%.

For the compound `CCC(CC)Oc1ccc(N(Cc2ccc(C(C)(C)C)cc2)C(=O)C(=O)O)c(-c2ccc(OC(F)(F)F)cc2)c1` [Compound 207], the inhibition at 5 µM turned out to be 79% and the inhibition at 10 µM turned out to be 90%.

Take `CC(C)Oc1ccc(N(Cc2ccc(C(C)(C)C)cc2)C(=O)C(=O)O)c(-c2ccc(OC(F)(F)F)cc2)c1` [Compound 209]: the inhibition at 5 µM worked out at 81%, the inhibition at 10 µM worked out at 98% and the inhibition at 25 µM worked out at 94%.

`CCCOc1ccc(N(Cc2ccccc2)C(=O)C(=O)O)cc1-c1ccc(OC(F)(F)F)cc1` [Compound 210]: the inhibition at 5 µM stood at 39%, the inhibition at 10 µM was found to be 70% and the inhibition at 25 µM was determined as 94%.

`CC(C)(C)c1ccc(CN(C(=O)C(=O)O)c2ccc(N3CCOCC3)c(-c3ccc(OC(F)(F)F)cc3)c2)cc1` [Compound 216]: the inhibition at 5 µM worked out at 75%, the inhibition at 10 µM amounted to 88% and the inhibition at 25 µM was 84%.

Take `CC(C)(C)c1ccc(CN(C(=O)C(=O)O)c2ccc(N3CCCCC3)c(-c3ccc(OC(F)(F)F)cc3)c2)cc1` [Compound 217]: the inhibition at 5 µM turned out to be 86% and the inhibition at 10 µM was 84%.

With `CC(C)(C)Oc1ccc(N(Cc2ccc(C(C)(C)C)cc2)C(=O)C(=O)O)cc1-c1ccc(OC(F)(F)F)cc1` [Compound 218], the inhibition at 5 µM is 83% and the inhibition at 10 µM was found to be 78%.

With `CC(C)(C)c1ccc(CN(C(=O)C(=O)O)c2ccc(N3CCCCC3=O)c(-c3ccc(OC(F)(F)F)cc3)c2)cc1` [Compound 219], the inhibition at 5 µM is 33%, the inhibition at 10 µM is 58% and the inhibition at 25 µM is 86%.

For the compound `CC(c1ccc(C(C)(C)C)cc1)N(C(=O)C(=O)O)c1ccc(-c2ccc(OC(F)(F)F)cc2)cc1` (stereo not shown) [Compound 220], the inhibition at 5 µM amounted to 51%, the inhibition at 10 µM was determined as 86% and the inhibition at 25 µM is 89%.

Regarding `O=C(O)C(=O)N(CCc1ccccc1)c1ccc(-c2ccc(OC(F)(F)F)cc2)cc1` [Compound 223], the inhibition at 5 µM was 13% and the inhibition at 10 µM was determined as 27%.

Turning to `O=C(O)C(=O)N(CCCc1ccccc1)c1ccc(-c2ccc(OC(F)(F)F)cc2)cc1` [Compound 224], the inhibition at 5 µM was found to be 29%, the inhibition at 10 µM came out at 53% and the inhibition at 25 µM is 86%.

Regarding `O=C(O)C(=O)N(CCCCc1ccccc1)c1ccc(-c2ccc(OC(F)(F)F)cc2)cc1` [Compound 225], the inhibition at 5 µM worked out at 27%, the inhibition at 10 µM amounted to 50% and the inhibition at 25 µM turned out to be 88%.

`O=C(O)C(=O)N(CCCCCc1ccccc1)c1ccc(-c2ccc(OC(F)(F)F)cc2)cc1` [Compound 228]: the inhibition at 5 µM amounted to 45%, the inhibition at 10 µM was 71% and the inhibition at 25 µM was determined as 95%.

On to `CCCOc1ccc(N(CCCc2ccccc2)C(=O)C(=O)O)cc1-c1ccc(OC(F)(F)F)cc1` [Compound 229], for which the inhibition at 5 µM amounted to 48%, the inhibition at 10 µM was 80% and the inhibition at 25 µM was determined as 94%.

In the case of `CCCOc1ccc(N(CCCc2ccccc2)C(=O)C(=O)O)c(-c2ccc(OC(F)(F)F)cc2)c1` [Compound 232], the inhibition at 5 µM is 52%, the inhibition at 10 µM was found to be 82% and the inhibition at 25 µM is 96%.

Consider `CCCOc1ccc(-c2ccc(OC(F)(F)F)cc2)cc1N(CCCc1ccccc1)C(=O)C(=O)O` [Compound 234], for which the inhibition at 5 µM amounted to 59%, the inhibition at 10 µM was 83% and the inhibition at 25 µM turned out to be 96%.

The values above are taken from patent EP2272817A1, “PAI-1 INHIBITOR” (Institute of Medicinal Molecular Design, Inc., priority 2008, dated 2009).
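Note: PAI-1 preincubated with compound, then two-chain tPA added, residual tPA activity read with fluorogenic Pyr-Gly-Arg-MCA substrate after 30 min at room temperature.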
